Test results taken from US9670208B2, “Serine/threonine kinase inhibitors” (Array BioPharma Inc., priority 2013, dated 2017).
pIC50: −log10 of the molar value.

Key:
[1] = target: human ERK-2 (Mitogen Activated Kinase 1) (Homo sapiens (Human), UniProt P28482); assay: ERK-2 Enzymatic Assay; type: biochemical; details: ERK-2 enzyme, 25 μM ATP; single assay or mean of multiple assays; read-out: Biological Example 1 IC50
[2] = test system: PMA-stimulated P90RSK(Ser380) phosphorylation in HepG2 cells; assay: Cellular P90RSK(Ser380) Phosphorylation Assay; type: cell-based; details: Homo sapiens, 1.5 hours compound incubation, PMA 100 ng/mL, normalized to GAPDH, single assay or mean of multiple assays, read-out: Biological Example 2 IC50
Method: Inhibition of PMA-stimulated P90RSK(Ser380) phosphorylation was determined by the following in vitro cellular mechanistic assay, which comprises incubating cells with a compound for 1.5 hours and quantifying fluorescent pP90RSK(Ser380) signal on fixed cells and normalizing to GAPDH signal.
HepG2 cells were obtained from ATCC (Manassas, Va.) and grown in DMEM supplemented with 10% fetal bovine serum. Cells were plated in 96-well plates at 35,000 cells/well and allowed to attach overnight at 37° C./5% CO2. Diluted compounds were then added at a final concentration of 0.5% DMSO. After 1.5 hours compound incubation, cells were stimulated with the addition of phorbol 12-myristate 13-acetate (“PMA”) at a final concentration of 100 ng/mL; the PMA stimulation was a 30-minute incubation at 37° C./5% CO2. After the 30-minute PMA stimulation, cells were washed with phosphate buffered saline (“PBS”) and fixed in 3.7% formaldehyde in PBS at room temperature for 15-20 minutes. This was followed by another wash in PBS and then permeabilization in 100% MeOH at room temperature for 10-15 minutes. Following the permeabilization incubation, cells were washed in PBS/0.05% Tween-20, followed by a block in Odyssey blocking buffer (LI-COR Biosciences) for at least 1 hour. Antibodies to phosphorylated P90RSK(Ser380) (Cell Signaling #9335, rabbit monoclonal) and GAPDH (Fitzgerald 10R-G109a, mouse monoclonal) were added to the cells and incubated overnight at 4° C. pP90RSK(Ser380) antibody was used at a 1:250 dilution; GAPDH was used at a 1:10,000 dilution. After washing with PBS/0.05% Tween-20, the cells were incubated with fluorescently-labeled secondary antibodies (Anti-rabbit-Alexa Flour680, Invitrogen Cat#A21109; Anti-mouse-IRDye800CW, Rockland Inc. Cat#610-131-121) for 1 hour. Both secondary antibodies were used at a 1:1000 dilution. Cells were then washed and analyzed for fluorescence at both wavelengths using the Odyssey Infrared Imaging System (LI-COR Biosciences). Phosphorylated P90RSK(Ser380) signal was normalized to GAPDH signal.

human ERK-2 (Mitogen Activated Kinase 1), sequence (P28482 8-360): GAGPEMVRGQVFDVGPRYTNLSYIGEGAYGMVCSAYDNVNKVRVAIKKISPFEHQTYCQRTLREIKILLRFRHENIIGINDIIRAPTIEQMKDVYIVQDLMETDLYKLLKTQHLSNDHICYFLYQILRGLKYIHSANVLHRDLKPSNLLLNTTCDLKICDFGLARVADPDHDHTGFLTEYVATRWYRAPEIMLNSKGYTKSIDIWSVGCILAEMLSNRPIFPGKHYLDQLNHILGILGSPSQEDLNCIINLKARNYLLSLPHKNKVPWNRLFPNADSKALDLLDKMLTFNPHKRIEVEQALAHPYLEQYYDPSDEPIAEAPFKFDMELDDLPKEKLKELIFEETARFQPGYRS

Compound | pIC50 [1] | pIC50 [2]
CCC=Cc1nnc2cc(-c3ccnc(Nc4ccnn4C)n3)ccn12 (stereo in doubt) [Example 258, (E)-4-(3-(but-1-en-1-yl)-[1,2,4]triazolo[4,3-a]pyridin-7-yl)-N-(1-methyl-1H-pyrazol-5-yl)pyrimidin-2-amine] | 8.24 | 6.75
Cn1nccc1Nc1nccc(-c2ccn3c(Cc4cc(C5CC5)ccn4)nnc3c2)n1 [Example 35, 4-(3-((4-cyclopropylpyridin-2-yl)methyl)-[1,2,4]triazolo[4,3-a]pyridin-7-yl)-N-(1-methyl-1H-pyrazol-5-yl)pyrimidin-2-amine] | 9.10 | 7.77
COc1ccc(Cc2nnc3cc(-c4ccnc(Nc5ccnn5C)n4)ccn23)cc1F [Example 40, 4-(3-(3-fluoro-4-methoxybenzyl)-[1,2,4]triazolo[4,3-a]pyridin-7-yl)-N-(1-methyl-1H-pyrazol-5-yl)pyrimidin-2-amine] | 8.48 | 8.19
COc1ccc(Cc2nnc3cc(-c4ccnc(Nc5ccnn5C)n4)ccn23)cc1 [Example 49, 4-(3-(4-methoxybenzyl)-[1,2,4]triazolo[4,3-a]pyridin-7-yl)-N-(1-methyl-1H-pyrazol-5-yl)pyrimidin-2-amine] | 9.10 | 8.18
Cn1nccc1Nc1nccc(-c2ccn3c(Cc4cccc(F)c4F)nnc3c2)n1 [Example 51, 4-(3-(2,3-difluorobenzyl)-[1,2,4]triazolo[4,3-a]pyridin-7-yl)-N-(1-methyl-1H-pyrazol-5-yl)pyrimidin-2-amine] | 8.59 | 8.05
Cn1nccc1Nc1nccc(-c2ccn3c(Cc4cccc(Cl)c4Cl)nnc3c2)n1 [Example 57, 4-(3-(2,3-dichlorobenzyl)-[1,2,4]triazolo[4,3-a]pyridin-7-yl)-N-(1-methyl-1H-pyrazol-5-yl)pyrimidin-2-amine] | 9.30 | 8.34
Cn1nccc1Nc1nccc(-c2ccn3c(Cc4ccc(F)cc4F)nnc3c2)n1 [Example 67, 4-(3-(2,4-difluorobenzyl)-[1,2,4]triazolo[4,3-a]pyridin-7-yl)-N-(1-methyl-1H-pyrazol-5-yl)pyrimidin-2-amine] | 8.55 | 8.12
Cn1nccc1Nc1cc(-c2ccn3c(Cc4ccc(F)cc4F)nnc3c2)ccn1 [Example 84, 4-(3-(2,4-difluorobenzyl)-[1,2,4]triazolo[4,3-a]pyridin-7-yl)-N-(1-methyl-1H-pyrazol-5-yl)pyridin-2-amine] | 8.49 | 7.80
COC(Cc1nnc2cc(-c3ccnc(Nc4ccnn4C)n3)ccn12)C(F)(F)F (stereo not drawn) [Example 108, N-(1-methyl-1H-pyrazol-5-yl)-4-(3-(3,3,3-trifluoro-2-methoxypropyl)-[1,2,4]triazolo[4,3-a]pyridin-7-yl)pyrimidin-2-amine] | 8.47 | 7.42
CCOCCc1nnc2cc(-c3ccnc(Nc4ccnn4C)n3)ccn12 [Example 111, 4-(3-(2-ethoxyethyl)-[1,2,4]triazolo[4,3-a]pyridin-7-yl)-N-(1-methyl-1H-pyrazol-5-yl)pyrimidin-2-amine] | 8.54 | 7.55
Fc1c(-c2ccnc(NC3CCOCC3)c2)ccn2c(Cc3ccc(Cl)cc3)nnc12 [Example 112, 4-(3-(4-chlorobenzyl)-8-fluoro-[1,2,4]triazolo[4,3-a]pyridin-7-yl)-N-(tetrahydro-2H-pyran-4-yl)pyridin-2-amine] | 7.77 | 6.06
CN1CC(Oc2c(F)cccc2F)CC(c2nnc3cc(-c4ccnc(Nc5ccnn5C)n4)ccn23)C1 (stereo not drawn) [Example 113, 4-(3-(5-(2,6-difluorophenoxy)-1-methylpiperidin-3-yl)-[1,2,4]triazolo[4,3-a]pyridin-7-yl)-N-(1-methyl-1H-pyrazol-5-yl)pyrimidin-2-amine] | 8.47 | 7.42
CC[C@H](C)Cc1nnc2cc(-c3ccnc(Nc4ccnn4C)n3)ccn12 [Example 115, (S)—N-(1-methyl-1H-pyrazol-5-yl)-4-(3-(2-methylbutyl)-[1,2,4]triazolo[4,3-a]pyridin-7-yl)pyrimidin-2-amine] | 8.55 | 8.08
Cn1nccc1Nc1nccc(-c2ccn3c([C@H](O)c4cccc(Cl)c4)nnc3c2)n1 [Example 116, (R)-(3-chlorophenyl)(7-(2-((1-methyl-1H-pyrazol-5-yl)amino)pyrimidin-4-yl)-[1,2,4]triazolo[4,3-a]pyridin-3-yl)methanol] | 8.48 | 7.71
Cn1nccc1Nc1cc(-c2ccn3c([C@H](O)Cc4ccccc4)nnc3c2)ccn1 [Example 121, (R)-1-(7-(2-((1-methyl-1H-pyrazol-5-yl)amino)pyridin-4-yl)-[1,2,4]triazolo[4,3-a]pyridin-3-yl)-2-phenylethanol] | 9.05 | 7.46
COc1ccc(Cc2nnc3cc(-c4nc(NC5CCOCC5)ncc4F)ccn23)cc1 [Example 123, 5-fluoro-4-(3-(4-methoxybenzyl)-[1,2,4]triazolo[4,3-a]pyridin-7-yl)-N-(tetrahydro-2H-pyran-4-yl)pyrimidin-2-amine] | 8.55 | 7.59
c1cc(-c2ccn3c(C4CCCNC4)nnc3c2)nc(NC2CCOCC2)n1 (stereo not drawn) [Example 131, 4-(3-(piperidin-3-yl)-[1,2,4]triazolo[4,3-a]pyridin-7-yl)-N-(tetrahydro-2H-pyran-4-yl)pyrimidin-2-amine] | 6.65 | 5.62
COc1ncc(F)cc1CN1CCCC(c2nnc3cc(-c4ccnc(NC5CCOCC5)n4)ccn23)C1 (stereo not drawn) [Example 132, 4-(3-(1-((5-fluoro-2-methoxypyridin-3-yl)methyl)piperidin-3-yl)-[1,2,4]triazolo[4,3-a]pyridin-7-yl)-N-(tetrahydro-2H-pyran-4-yl)pyrimidin-2-amine] | 6.70 | < 5.30
CN1C(=O)CC(c2ccccc2)C1c1nnc2cc(-c3ccnc(NC4CCOCC4)n3)ccn12 (stereo not drawn) [Example 136, 1-methyl-4-phenyl-5-(7-(2-((tetrahydro-2H-pyran-4-yl)amino)pyrimidin-4-yl)-[1,2,4]triazolo[4,3-a]pyridin-3-yl)pyrrolidin-2-one] | 6.77 | –
O=C(c1c(F)cccc1F)N1CCOC(c2nnc3cc(-c4ccnc(NC5CCOCC5)n4)ccn23)C1 (stereo not drawn) [Example 140, (2,6-difluorophenyl)(2-(7-(2-((tetrahydro-2H-pyran-4-yl)amino)pyrimidin-4-yl)-[1,2,4]triazolo[4,3-a]pyridin-3-yl)morpholino)methanone] | 8.12 | 6.31
Cn1nccc1Nc1nccc(-c2ccn3c(CC(C)(C)C)nnc3c2)n1 [Example 150, N-(1-methyl-1H-pyrazol-5-yl)-4-(3-neopentyl-[1,2,4]triazolo[4,3-a]pyridin-7-yl)pyrimidin-2-amine] | 8.55 | 7.41
Cn1nccc1Nc1nccc(-c2ccn3c(CC4CC5CCC4C5)nnc3c2)n1 (stereo not drawn) [Example 163, 4-(3-(bicyclo[2.2.1]heptan-2-ylmethyl)-[1,2,4]triazolo[4,3-a]pyridin-7-yl)-N-(1-methyl-1H-pyrazol-5-yl)pyrimidin-2-amine] | 8.62 | 7.68
CC(C)Cc1nnc2cc(-c3ccnc(Nc4ccnn4C)n3)ccn12 [Example 169, 4-(3-isobutyl-[1,2,4]triazolo[4,3-a]pyridin-7-yl)-N-(1-methyl-1H-pyrazol-5-yl)pyrimidin-2-amine] | 8.57 | 7.52
Cn1nccc1Nc1nccc(-c2ccn3c(C4OCCc5ccccc54)nnc3c2)n1 (stereo not drawn) [Example 192, 4-(3-(isochroman-1-yl)-[1,2,4]triazolo[4,3-a]pyridin-7-yl)-N-(1-methyl-1H-pyrazol-5-yl)pyrimidin-2-amine] | 8.22 | 7.43
CO[C@@H](c1ccccc1)c1nnc2cc(-c3ccnc(NC4CCOCC4)n3)ccn12 [Example 195, (S)-4-(3-(methoxy(phenyl)methyl)-[1,2,4]triazolo[4,3-a]pyridin-7-yl)-N-(tetrahydro-2H-pyran-4-yl)pyrimidin-2-amine] | 7.60 | 7.40
c1cc(-c2ccn3c(C4CNCCO4)nnc3c2)nc(NC2CCOCC2)n1 (stereo not drawn) [Example 387, 4-(3-(morpholin-2-yl)-[1,2,4]triazolo[4,3-a]pyridin-7-yl)-N-(tetrahydro-2H-pyran-4-yl)pyrimidin-2-amine] | 6.93 | –
Cc1cc(-c2nnc3cc(-c4ccnc(Nc5cnn(C)c5)n4)ccn23)nn1-c1ccc(F)cc1 [Example 419, 4-(3-(1-(4-fluorophenyl)-5-methyl-1H-pyrazol-3-yl)-[1,2,4]triazolo[4,3-a]pyridin-7-yl)-N-(1-methyl-1H-pyrazol-4-yl)pyrimidin-2-amine] | 6.87 | –
